Laboratory results reported in PMC9822769, “The Strange Case: The Unsymmetric Cisplatin-Based Pt(IV) Prodrug [Pt(CH3COO)Cl2(NH3)2(OH)] Exhibits Higher Cytotoxic Activity with respect to Its Symmetric Congeners due to Carrier-Mediated Cellular Uptake” (Bioinorganic Chemistry and Applications, 2022).

Key:
[1] = design: method as in PMID 32296997; settings: 37°C, ten-fold excess of ascorbic acid; cited from earlier work
MCF-7 = test: Resazurin reduction cell viability assay, MCF-7; assay type: cell-based, human; settings: 72 h of treatment; mean ± sd
Description: The compounds under investigation were tested on a panel of commercial human cancer cell lines: ovarian endometrioid adenocarcinoma A2780 (ICLC HTL98008), its cisplatin-resistant variant A2780cisR (ECACC 93112517), colon carcinoma HCT 116 (ECACC 91091005), breast invasive ductal carcinoma MCF7 (ECACC 86012803), embryonal carcinoma NTERA-2 clone D1 (also known as NT2/D1, ICLC HTL97025), and lung adenocarcinoma A549 (ICLC HTL03001). Furthermore, a cell line derived from the pleural effusion of a patient with untreated malignant pleural mesothelioma (MPM) was added to the panel, namely, MM98 (sarcomatoid phenotype). Commercial cells were purchased from the European Collection of Authenticated Cell Cultures (ECACC, UK) or the Interlab Cell Line Collection (ICLC, Genoa, Italy), while the MM98 cell line was obtained from the Pathology Unit of the National Hospital of Alessandria (Italy).
The following media were used to grow the cells: RPMI 1640 (for A2780, A2780cisR, NT2/D1, and A549 cells), DMEM (for MCF7 cells), DMEM supplemented with nonessential amino acids (for MM98 cells), and McCoy's 5A (for HCT 116 cells). All media contained L-glutamine (2 mM) and were added with penicillin (100 IU·mL^−1), streptomycin (100 mg·L^−1), and 10% heat inactivated FBS. To maintain resistance in A2780cisR cells, cisplatin (1 μM) was added to the medium every two passages.
Continuous treatments (CT) were carried out at 37°C in a humidified chamber with 5% CO2. Cisplatin was dissolved in a 0.9% w/v NaCl aqueous solution and brought to pH = 3 with HCl (final stock concentration 1 mM). The Pt(IV) Complexes 1–3 were dissolved in milliQ water (final stock concentration 5 mM) and stored at −20°C. The stock concentration was confirmed with inductively coupled plasma-mass spectrometry (ICP-MS) measurements. The mother solutions were diluted in a complete medium to the required concentration.
To assess the growth inhibition of the compounds under investigation, a cell viability test (i.e., the resazurin reduction assay) was used. […] At the end of the treatment (72 h), viability was evaluated with 100 μg·mL^−1 resazurin (Acros Chemicals, France) in a fresh medium for 1 h at 37°C, and the amount of the reduced product, resorufin, was measured by fluorescence (excitation λ = 535 nm, emission λ = 595 nm) with a Tecan Infinite F200Pro plate reader (Tecan, Austria). In each experiment, cells were challenged with drug candidates at different concentrations, and the final data were calculated from at least three replicates of the same experiment performed in triplicate. The fluorescence of 8 wells containing a medium without cells was used as a blank. Fluorescence data were normalized to 100% cell viability for nontreated cells. […]

[2] = Immobilized artificial membrane (IAM) chromatography, log KW; assay type: physicochemical; settings: IAM column; log k′ extrapolated to fully aqueous mobile phase
Description: Retention times, tR, were measured on two columns: (i) a standard C18 column (Phenomenex Phenosphere-NEXT, 250 × 4.6 mm, 5 μm) and (ii) an IAM.PC.DD.2 column (Regis, 10 cm × […], 10 μm packing 300 Å pore size), prepared by covalently bonding cell-membrane-forming phospholipids to silica. On (i), a chromatogram was performed for each complex (0.25 mM) in a fixed eluent composition (30% methanol/70% aqueous 15 mM formic acid; flow rate 0.5 mL·min^−1) using a Waters HPLC-MS instrument (equipped with an Alliance 2695 separation module, a 2487 dual lambda absorbance detector, and a 3100 mass detector). The UV-vis detector was set at 210 nm. In (ii), the mobile phase consisted of 20 mM ammonium acetate buffer at pH 6.9 and acetonitrile flowing at 1 mL·min^−1. The samples were dissolved in the mobile phase in a concentration range of 50–100 μg·mL^−1. An HPLC Varian ProStar instrument equipped with a 410 autosampler, a PDA 335 LC detector, and Galaxie Chromatography Data System Version 1.9.302.952 was used.
The different tRs were used to calculate log k′, which is the logarithm of the retention factor k′ = (tR − t0)/t0, where t0 is the column dead time (i.e., the tR of KCl or citric acid used as the internal reference for (i) and (ii), respectively).
In the case of IAM, the log KW values were calculated by an extrapolation method. Log k′ values were determined at a minimum of three different percentages of acetonitrile (ϕ) in the mobile phases (from 10 to 50%, v/v), and the intercept values of the linear relationships between log k′ and ϕ values were assumed as log KW [65, 66].
Immobilized artificial membrane (IAM) chromatography is a complementary technique for evaluating the interaction of a drug with the cellular membrane. In this technique, the stationary silica phase is covalently bonded to phospholipids, giving a material that is more similar to the cell membrane than the simpler aliphatic chains of the RP-HPLC columns. The log KW values (i.e., log k′ values extrapolated at fully aqueous mobile phase) show the same trend for the three Pt(IV) complexes (log KW = −0.64, −1.06, −0.96, and −0.83 for cisplatin, 1, 2, and 3, respectively) (Table 1).

SMILES | t ½ [1] [min] | IC50 (MCF-7) [µM] | Log KW [2]
CC(=O)[O][Pt]([OH])([Cl])[Cl].N.N [Complex 2, (OC-6-44)-acetatodiamminedichloridohydroxidoplatinum(IV)] | 20.5 | 8.86 ± 3.45 | −0.96
CC(=O)[O][Pt]([NH2])([NH2])([Cl])([Cl])[O]C(C)=O [Complex 3, (OC-6-33)-diamminedichloridodiacetatoplatinum(IV)] | 528 | > 100 | −0.83
N.N.[OH][Pt]([OH])([Cl])[Cl] [Complex 1, (OC-6-33)-diamminedichloridodihydroxidoplatinum(IV)] | 8.6 | 78.1 ± 5.6 | −1.06
N.N.[Cl][Pt][Cl] [Cisplatin, (SP-4-2)-diamminedichloridoplatinum(II)] |  | 6.46 ± 0.91 | −0.64
